Data taken from the NIST ThermoML archive (doi:10.1016/j.jct.2012.01.013).

Assay: xn = mol fraction of the nth substance listed
Conditions: 101 kPa, Liquid; for viscosity: Falling or rolling sphere viscometry; for mass density: Vibrating tube method

CC(=O)[O-].Cn1cc[nH+]c1 [1-methylimidazolium acetate] + CCO
Conditions	mass density, 293.15 K [kg/m3]	mass density, 298.15 K [kg/m3]	mass density, 303.15 K [kg/m3]	mass density, 308.15 K [kg/m3]	mass density, 313.15 K [kg/m3]	viscosity, 293.15 K [mPa·s]	viscosity, 298.15 K [mPa·s]	viscosity, 303.15 K [mPa·s]	viscosity, 308.15 K [mPa·s]	viscosity, 313.15 K [mPa·s]
x1 = 0.0495	823.45	819.02	814.55	810.04	805.49	1.366	1.236	1.123	1.024	0.938
x1 = 0.0964	851.37	846.85	842.29	837.69	833.06	1.578	1.421	1.268	1.153	1.052
x1 = 0.2004	902.14	897.55	892.91	888.25	883.55	1.995	1.789	1.612	1.458	1.325
x1 = 0.2986	940.21	935.59	930.94	926.27	921.57	2.485	2.212	1.981	1.784	1.614
x1 = 0.401	972.28	967.67	963.03	958.37	953.69	3.048	2.695	2.399	2.148	1.935
x1 = 0.4973	997.47	992.88	988.27	983.64	978.99	3.642	3.199	2.833	2.524	2.264
x1 = 0.6499	1029.38	1024.83	1020.26	1015.69	1011.1	4.686	4.061	3.576	3.146	2.798
x1 = 0.8003	1053.98	1049.49	1044.97	1040.45	1035.92	5.85	5.024	4.363	3.826	3.384
x1 = 0.8941	1066.93	1062.47	1057.99	1053.51	1049.01	6.855	5.847	5.04	4.357	3.829
